Test results as given in a melting point compilation (Tetko et al.; mined from patent text by program, amines drawn as free bases though some values may be those of a salt).

First: CCNC(=O)c1c(-c2ccccc2)cccc1[Si](C)(C)C
Second: Cc1cccc(C)c1N(CC(C)O)C(=O)c1ccccc1 (configuration not stated)
The melting point of the first is higher: 159 to 160 °C for the first, 121 to 122 °C for the second.

First: Cc1ccccc1C(=O)Cc1ccncc1
Second: O=C(/C=C/c1ccncc1)N[C@H]1c2ccccc2C[C@H]1O
The melting point of the first is lower: 118 to 119 °C for the first, 205 to 207 °C for the second.

First: CCOC(=O)c1cn(C(C)(C)C)c2nc(NC(=O)c3ccc(C)cc3)sc12
Second: Cc1ccc(C(=O)NCc2cc(C(C)C)no2)cc1
The melting point of the first is higher: 200 to 201 °C for the first, 107 to 116 °C for the second.

Compared with `CCOC(=O)c1ccc(NCCOc2ccc(Br)cc2)cc1`, `Clc1ccc(-c2ccc(Br)cc2)cc1` is lower in melting point: 128 to 133 °C for the first, 81 to 82 °C for the second.

Going from `NCC1(O)CCN(CC2OCCO2)CC1` to `OC1(c2ccc3c(c2)OCO3)CCN(Cc2ccccc2)CC1`, the melting point rises from 137 °C to 144 °C.

Compared with `CCOC1CC2(C)C(CCC3C4CCC(=O)C4(C)CC(N)C32)CC1O` (configuration not stated), `CCC12CCC3c4ccc(OC)cc4CCC3C1CCC2O` (configuration not stated) is lower in melting point: 144 to 148 °C for the first, 126 to 130 °C for the second.

First: CCCCn1nc(C=O)nc1Cc1ccc(-c2ccccc2-c2nnn[nH]2)nc1
Second: CCCCc1nc(SCC)c(C(=O)O)n1Cc1ccc(-c2ccccc2C(=O)O)cc1
The melting point of the first is higher: 167 to 168 °C for the first, 156 °C for the second.

Compared with `CCS(=O)(=O)NC1CCCOc2ccccc21` (configuration not stated), `Nc1cc(=O)[nH]c(=O)n1C1CCc2ccccc21` (configuration not stated) is higher in melting point: 109 to 111 °C for the first, over 295 °C for the second.

First: CCOC(=O)c1ccc(/C=C/c2ccc(O)c(C3(C)CCCCC3)c2)cc1
Second: CC1(C2=C(O)C(=O)c3ccccc3C2=O)CCCCC1
The melting point of the first is higher: 149 °C for the first, 79 °C for the second.

First: COC(=O)[C@@H](C)Nc1ncccc1[N+](=O)[O-]
Second: CC(C)CNC(=O)c1cccnc1Oc1cccc(Cl)c1
The melting point of the first is lower: 39 to 40 °C for the first, 86 to 87 °C for the second.

First: COC(=O)NCC(C)OS(C)(=O)=O (configuration not stated)
Second: CCOC(=O)NNC(=O)NCCCC(=O)OC
The melting point of the first is lower: 37 to 40 °C for the first, 95 to 96 °C for the second.

First: CC(C)(O)c1ccc(CC(=O)Nc2cccnc2Oc2cccnc2)cc1
Second: CC(O)(CCC#N)c1ccc(Oc2ccc(Cl)cc2)cc1 (configuration not stated)
The melting point of the first is higher: 122 to 124 °C for the first, 68 to 70 °C for the second.

Compared with `CN(C)c1ccc(C(=O)Cc2cccc(Cl)c2)cc1`, `CCOC(=O)[C@H](Cc1ccc(O)cc1)NC(=O)c1c(Cl)cccc1Cl` is higher in melting point: 126 to 128 °C for the first, 141 to 142 °C for the second.

Compared with `O=C1COc2cc(Nc3ccc(O)cc3)ccc2N1`, `CC(=O)Nc1ccc2c(c1)CCC(=CN(C)C)C2=O` is lower in melting point: 270 to 275 °C for the first, 207 to 210 °C for the second.

First: CN(C)C1CC2=CNC=C3C=C(C=O)OCC1=C32 (configuration not stated)
Second: COc1ccc(N2C(=O)C(=CN(C)C)c3ccccc32)cc1F
The melting point of the first is higher: 175 to 176 °C for the first, 113 to 114 °C for the second.

First: CSc1ccc(C2=C(c3ccc(F)cc3)CCC2)cc1
Second: CN(C)S(=O)(=O)c1cc(-c2csc(=Nc3ccc(F)cc3)n2C)ccc1Cl
The melting point of the first is lower: 46 to 47 °C for the first, 144 to 145 °C for the second.

First: O=C1NCCC12CCCN2Cc1ccccc1 (configuration not stated)
Second: O=C(CCc1cc(-c2ccccc2)nc2ccccc12)N1CCCC1
The melting point of the first is higher: 152 to 153 °C for the first, 116 °C for the second.

Compared with `CCOc1ccc(-c2ccc(OC(CC)CCN3CCN(c4cncs4)CC3)cc2)cc1` (configuration not stated), `COc1ccc(N2CCN(c3ccc(NC(=O)Oc4ccccc4)cn3)CC2)cc1` is higher in melting point: 149 to 150 °C for the first, 197 to 198 °C for the second.

`C=CCC(=O)NCC(CO)c1cccc2ccc(OC)cc12` (configuration not stated) and `COCc1ccc(CC(C)NCC(O)c2ccc(O)c(CO)c2)cc1` (configuration not stated) cannot be ordered by melting point: 86 to 88 °C for the first, 81 to 92 °C for the second.

First: O=C1CCC(N2C(=O)c3cccc(NCC(=O)N4CCC4)c3C2=O)C(=O)N1 (configuration not stated)
Second: O=C(OCC1CC1)c1ncn2c1[C@@H]1CCCN1C(=O)c1ccccc1-2
The melting point of the first is higher: 272 to 274 °C for the first, 189 to 190 °C for the second.

First: N#Cc1ccc(Oc2ccccc2NC(=O)c2cccc([N+](=O)[O-])c2)cc1C#N
Second: COc1ccc(C(=O)Nc2ccccc2)cc1NS(=O)(=O)c1ccccc1Cl
The melting point of the first is higher: 176 to 178 °C for the first, 107 to 109 °C for the second.

First: COc1c(N2CCC(NC(=O)OCc3ccccc3)C(C)(C)C2)c(F)cc2c(=O)c(C(=O)O)cn(C3CC3)c12 (configuration not stated)
Second: C[C@H]1CN(c2c(F)cc3c(=O)c(C(=O)O)cn(CCF)c3c2Cl)C[C@H]1NC(=O)OC(C)(C)C (relative stereo)
The melting point of the first is lower: 158 to 160 °C for the first, 229 to 231 °C for the second.

First: O=S(=O)(Cl)c1ccc(Cl)c(CBr)c1Cl
Second: NC(=O)C(N)c1ccc(Cl)cc1Cl (configuration not stated)
The melting point of the first is lower: 90 to 92 °C for the first, 114 °C for the second.

First: Cc1cc(Br)ccc1NC(=O)CC(=O)NCCO
Second: Cc1cc(OCC(=O)NCCO[N+](=O)[O-])no1
The melting point of the first is higher: 139 to 142 °C for the first, 93 to 94 °C for the second.

First: CCOc1cc([C@@H](CCN(O)C(N)=O)N2Cc3cccc(NC(=O)C(C)C)c3C2=O)ccc1OC
Second: CC(C(=O)Nc1cccc2c1C(=O)c1c(NC(=O)C(C)N(C)C)cccc1C2=O)N(C)C (configuration not stated)
The melting point of the first is higher: 137 to 139 °C for the first, 116 to 117 °C for the second.

First: COCCOC(=O)Nc1cc(N2CC=CCC2)nc(N)n1
Second: CCCCOC(=O)[C@H]1CN(c2ccc(N3CCSCC3)cc2)C(=O)O1
The melting point of the first is higher: 136 °C for the first, 95.5 to 98 °C for the second.

First: CN(CCNC(=O)NCCCOc1cccc(CN2CCCCC2)c1)CCN(Cc1ccc(F)cc1)c1ccccn1
Second: COc1cccc(CN2CCC(c3cc(-c4ccc(Cl)cc4)[nH]n3)CC2)c1
The melting point of the first is higher: 68 °C for the first, 50 to 52 °C for the second.

First: COC1=C(OC)C(=O)C2=C(CCC(CCO)CC2)C1=O
Second: COc1ccc2c(c1N)C(CCNC(C)=O)CC2 (configuration not stated)
The melting point of the first is lower: 63 to 64 °C for the first, 94 to 97 °C for the second.

First: CCC1(C(NC(=O)c2ccc(Cl)cc2)NC(=NC#N)Nc2cccnc2)COCOC1 (configuration not stated)
Second: CC1(C(O)(C=Cc2ccc(Cl)cc2Cl)Cn2ccnc2)COCOC1 (configuration not stated)
The melting point of the first is higher: 194 to 195 °C for the first, 142 to 144 °C for the second.

First: Cc1cc2c(cc1NC(=O)c1cccc(I)c1C(=O)NC(C)C)OC(F)(F)C2(O)C(F)(F)F (configuration not stated)
Second: O=C(Nc1cccc(S(=O)(=O)C(F)(F)F)c1)c1cnn2c(C(F)(F)F)cc(-c3ccc(C(F)(F)F)cc3)nc12
The melting point of the first is lower: 144 to 146 °C for the first, 207 °C for the second.

First: COC(=O)c1ccccc1OCC(O)CN1CCN(c2ccccc2OC)CC1 (configuration not stated)
Second: COc1cc(N)c2nccc(C)c2c1OCCCCCc1ccccc1
The melting point of the first is higher: 120 to 121 °C for the first, 65 to 66 °C for the second.

Compared with `COc1cc(NC(=O)CCCCCN2CC(C)OC(C)C2)c2nccc(C)c2c1` (configuration not stated), `COCC(=O)Nc1cccc2c1C1(COc3cc4c(cc31)OCCO4)C(=O)N2C` (configuration not stated) is higher in melting point: 87 to 90 °C for the first, 237 to 239 °C for the second.

First: COc1ccccc1CNc1ccc2cc(Nc3nccc(C(F)(F)F)n3)ccc2n1
Second: O=C(C=Cc1ccc(C(F)(F)F)cc1-c1nccs1)Nc1ccc2[nH]ccc2c1
The melting point of the first is lower: 114 °C for the first, 203 to 204 °C for the second.

First: O=C(NCc1cccc([N+](=O)[O-])c1)c1[nH]c2ccc(Cl)cc2c1S(=O)(=O)c1ccccc1
Second: O=C(Oc1ccccc1C(=O)Nc1cc(Cl)c(OC(=O)c2ccccc2)c(Cl)c1)c1ccccc1
The melting point of the first is higher: 253 to 254 °C for the first, 157 to 160 °C for the second.

First: COC(=O)CC(=O)CN1C(=O)c2ccccc2C1=O
Second: COC(=O)C1=C(C)NC(=O)N(C(=O)OC)C1c1cccc([N+](=O)[O-])c1 (configuration not stated)
The melting point of the first is lower: 139 to 140 °C for the first, 152 to 155 °C for the second.

First: CCc1cc(C#N)cc2c(NCc3ccc(OC)c(Cl)c3)c(CO)cnc12
Second: COc1ccc(Cc2cc(SC#N)ccc2OC)cn1
The melting point of the first is higher: 188 to 189 °C for the first, 56 to 58 °C for the second.

`Cc1cc(SCCSCC(=O)O)ccc1O` and `O=C(O)CCCCCCCCC(=O)c1ccccc1O` cannot be ordered by melting point: 86 °C for the first, 85 to 87 °C for the second.

Compared with `CC(C)=CCCC(C)=CCNC(=O)Nc1ccccc1CCc1cc(C(C)(C)C)c(O)c(C(C)(C)C)c1`, `CCOP(=O)(/C=C/c1cn(-c2ccccc2)nc1OCc1ccc(OCc2nc(-c3cccc(OCC(=O)O)c3)oc2C)c(OC)c1)OCC` is higher in melting point: 87 to 87.5 °C for the first, 166 to 168 °C for the second.

Compared with `CCc1c(OC)nc(OC)nc1C(=O)c1cc(C)cc(CO)c1`, `COc1cc(OC)nc(Oc2cccc(Oc3nc(OC)cc(OC)n3)c2C)n1` is higher in melting point: 101 to 103 °C for the first, 140 °C for the second.

Compared with `CC(=NNc1ccc(Cl)c2c1CC(C)O2)C(=O)O` (configuration not stated), `COC(=O)CC1CC(c2ccc(C(=N)NC(=O)OC(C)(C)C)cn2)=NO1` (configuration not stated) is lower in melting point: 155 to 157 °C for the first, 143 °C for the second.

First: O=C(O)C[C@H]1CC[C@H](Sc2nc(C3OCCO3)n(Cc3cc4c(cc3Cl)OCO4)c2C(=O)O)CC1
Second: CN(C)CC#Cc1cc(CC2CCOCC2)cc2c(=O)c(C(=O)NCc3ccc(Cl)cc3)cn(C)c12
The melting point of the first is lower: 145 °C for the first, 157 to 159 °C for the second.

Compared with `Cc1cccc(NC(=O)NC2C(=O)N(CC34CC5CC(CC(C5)C3)C4)c3ccccc3N(c3ccccc3)C2=O)c1` (configuration not stated), `O=S1(=O)c2cccc3cccc(c23)N1CCN1CCC(CCn2ccc3ccccc32)CC1` is lower in melting point: 244 to 246 °C for the first, 152 °C for the second.

Compared with `CCCCCN(CCCOC)C(=O)C(CCC(=O)O)CS(=O)(=O)c1ccc2ccccc2c1` (configuration not stated), `O=S1(=O)c2cccc3cccc(c23)N1CCCCl` is lower in melting point: 79 to 82 °C for the first, 78 °C for the second.

Compared with `CC1(C)COC(=O)N1Cc1ccccc1[N+](=O)[O-]`, `CCOC=Nc1ccc2nnc(-c3ccc([N+](=O)[O-])s3)n2n1` is higher in melting point: 103 to 106 °C for the first, 180 to 182 °C for the second.

First: CC(C)(C)C(=O)OCc1nc2cc3c(cc2c(=O)[nH]1)C(=O)CC3
Second: Cc1cc(S(C)(=O)=O)c(S(C)(=O)=O)cc1C(=O)N=C(N)N
The melting point of the first is lower: 185 to 190 °C for the first, over 240 °C for the second.

First: NC(=S)C1CCCc2cc3c(nc21)CCC3 (configuration not stated)
Second: CCCCOC(=O)[C@H]1CN(c2cc(F)c(C3CCSCC3)c(F)c2)C(=O)O1
The melting point of the first is higher: 118 °C for the first, 86 to 89 °C for the second.

Compared with `O=C(Nc1nc(C(F)(F)C(F)(F)F)c(I)s1)c1cc(C(F)(F)F)cc(C(F)(F)F)c1`, `Cc1cc(-c2cc(C(F)(F)F)nn2-c2ccc(S(N)(=O)=O)c(F)c2)ccc1-c1cscn1` is lower in melting point: 143 to 144 °C for the first, 125 to 127 °C for the second.

First: COCCNc1ccc(C2=NNC(=O)NC2C)cc1 (configuration not stated)
Second: COc1ccc(CCn2cnc3oc(C)c(C)c3c2=N)cc1
The melting point of the first is higher: 160 to 165 °C for the first, 125 °C for the second.

Compared with `Nc1nc(NC2Cc3ccccc3N(Cc3ccc(F)cc3F)C2)c2cn[nH]c2n1` (configuration not stated), `Cn1c(-c2ccc(-n3ccnc3)cc2)cnc1[C@H](Cc1ccccn1)N(C=O)c1cc2cc(Cl)ccc2o1` is lower in melting point: 110 to 114 °C for the first, 63 to 73 °C for the second.

First: CCC1(C)CCCC(C)(C)N1OC(C)(C)C#N (configuration not stated)
Second: N#CC(c1cccc(F)c1)N1CCOCC1 (configuration not stated)
The melting point of the first is lower: 41 to 52 °C for the first, 74 to 75 °C for the second.

First: CC(C)OC(=O)c1cn(-c2cccnc2)cn1
Second: CCCCCCCCCCC[C@@H]1CC(O)=CC(=O)O1
The melting point of the first is higher: 130 to 131 °C for the first, 86 to 87 °C for the second.
